From patent US10350188B2, “Use of Neu1 sialidase inhibitors in the treatment of cancer” (priority 2011, dated 2019)
Where “and” joins values, the source holds several entries; their conditions need not be identical. Identical values can stand only once.

Experiments:
MDA MB-231 cells = test: Cell viability of MDA MB-231 breast cancer cells in culture (MTT or WST-1, 72 hrs); format: cell-based, human; settings: oseltamivir phosphate alone; MDA MB-231 (chemo-resistant); MTT or WST-1, 72 hrs
Method: (§1) MDA MB-231cells (ATCC® Number: HTB-26™) are human mammary gland breast adenocarcinoma derived from metastatic pleural effusion with epithelial morphology. MCF-7 (ATCC® Number: HTB-22™) are human mammary gland breast adenocarcinoma derived from metastatic pleural effusion with epithelial morphology.
(§2) All cells were grown at 37° C. in 5% CO2 in culture media containing Dulbecco's Modified Eagle Medium (DMEM) (Gibco, Rockville, Md.) supplemented with 10% fetal calf serum (FCS) (HyClone, Logan, Utah, USA).
(§3) MTT is a colorimetric assay for measuring the activity of enzymes that reduce MTT or closely related dyes (XTT, MTS, WSTs) to formazan dye, giving a purple color. A main application allows the assessment of the viability (cell counting) and the proliferation of cells (cell culture assays). It can also be used to determine cytotoxicity of potential medicinal agents and toxic materials, since those agents would stimulate or inhibit cell viability and growth. MTT (3-(4,5-Dimethylthiazol-2-yl)-2,5-diphenyltetrazolium bromide, a yellow tetrazole), is reduced to purple formazan in living cells. A solubilization solution (usually either dimethyl sulfoxide, an acidified ethanol solution, or a solution of the detergent sodium dodecyl sulphate in diluted hydrochloric acid) is added to dissolve the insoluble purple formazan product into a coloured solution. The absorbance of this coloured solution can be quantified by measuring at a certain wavelength (usually between 500 and 600 nm) by a spectrophotometer. The absorption maximum is dependent on the solvent employed.
(§4) WST-1 (Roche Applied Sciences, Montreal) is a ready-to-use substrate which measures the metabolic activity of viable cells. The WST-1 assay is nonradioactive and can be performed entirely in a microplate. It is suitable for measuring cell proliferation, cell viability or cytotoxicity. The assay is based on the reduction of WST-1 by viable cells. The reaction produces a soluble formazan salt. The procedure involves: Culturing the cells in a 96-well microplate, then incubating them with WST-1 for approx. 0.5-4 h. During this incubation period, viable cells convert WST-1 to a water-soluble formazan dye. Quantitating the formazan dye in the microplate is done with an ELISA plate reader. The absorbance directly correlates with the cell number.

A 2780 cells = test: Cell viability of A 2780 ovarian cancer cells in culture (MTT or WST-1, 72 hrs); format: cell-based, human; settings: oseltamivir phosphate alone; A 2780 (chemo-sensitive); MTT or WST-1, 72 hrs
Method: (§5) A-2780 cells are human ovarian cancer cell line which was established from tumor tissue from an untreated patient with adenocarcinoma. Cells grow as a monolayer and in suspension in spinner cultures.
as §2, §3, §4

PANC-1 cells = test: Cell viability of PANC-1 pancreatic cancer cells in culture (MTT or WST-1, 72 hrs); format: cell-based, human
MCF-7 cells = test: Cell viability of MCF-7 breast cancer cells in culture (MTT or WST-1, 72 hrs); format: cell-based, human; settings: oseltamivir phosphate alone; MCF-7 (chemo-sensitive); MTT or WST-1, 72 hrs
Method: as §1, §2, §3, §4

[1] = test system: PANC-1 human pancreatic cancer cells implanted in RAG1/Cγ double mutant NOD xenograft mice; test: PANC-1 pancreatic cancer xenograft in RAG1/Cγ double mutant NOD mice; settings: for Liver metastases % Inhibition: vs untreated day 79
Source text: An immunodeficient mouse model with a double mutation in the combining recombinase activating gene-1 or -2 (RAG1 or RAG2) and common cytokine receptor γ chain (cγ) were used as xenograft mice. […] Mice deficient in both RAG2 and cγ (RAG2−/−/cγ−/−) were generated by inter-crossing and were maintained in SPF isolators in the Animal Care Facility, Queen's University, Kingston, Ontario K7L3N6, Canada. A colony was established in the animal facility. Mice deficient in both RAG1 and cγ (RAG1^−/−×cγ^−/−) on a non-obese diabetic (NOD) genetic background were obtained from the Jackson Laboratory (Bar Harbor, Me.) and a colony was established in the animal facility. All mice were kept under sterile conditions in micro-isolators or air-filtered cages, and were provided with autoclaved food and water. […] They were used between 6 and 8 weeks of age.
Puromycin-resistance eGFP transduced MiaPaCa-2 or PANC-1 cell clones were grown in 75 cm^2 cell culture flask at 80% confluence. The cells were resuspended into solution using TrypLE Express (Gibco) and washed with sterile saline. The cell suspension was centrifuged for 3 min at 900 rpm, and the cell pellet resuspended in sterile saline at a concentration of 5-10×10^6 cells/mL for 1-2×10^6 cells implantation into the right back flank of the mouse. Tumour measurements were taken twice a week. Tumour volumes were determined by (width square/2)×length.
The RAG1/Cγ double mutant xenograft mouse model was implanted with 2×10^6 PANC-1 cells in 0.2 mL in the right back flank.

A 2780cis cells = test: Cell viability of A 2780cis ovarian cancer cells in culture (MTT or WST-1, 72 hrs); format: cell-based, human; settings: oseltamivir phosphate alone; A 2780cis (chemo-resistant); MTT or WST-1, 72 hrs
Method: as §5, §2, §3, §4

[2] = test system: MiaPaCa-2-eGFP pancreatic cancer cells implanted in RAG2/Cγ double mutant Balbc xenograft mice; test: MiaPaCa-2-eGFP pancreatic cancer xenograft in RAG2/Cγ double mutant Balbc mice; format: in vivo, mouse
Method: Tumour measurements were taken twice a week.
MiaPaCa-2-eGFP pancreatic cancer cells at 1.5×10^6 in 0.2 mL were implanted subcutaneously in the right back flank of these mice. Each mouse in the study was identified by an ear punch number. Twice a week each mouse following implantation of the cancer cells was monitored for tumour volume growth (length and width) at the site of implantation, body weights, and body condition scoring. Scoring the body condition of rodents is a non-invasive method for assessing health and establishing endpoints for adults where body weight is not a viable monitoring tool, such as with tumour models. Body condition scores (BC) range from 1(emaciation) to 5 (obesity). An anticipated BCS of 2—under conditioned—or lower, requires justification in the protocol. Scores are determined by frequent visual and hands-on examination of each animal. The hands-on evaluation is done by gently holding the mouse by the base of the tail and passing a finger over the sacroiliac bones. The findings are matched to the descriptions and diagrams of BC ranges to determine a score. Scores are documented for each animal.

BxPC-3 cells = test: Cell viability of BxPC-3 pancreatic cancer cells in culture (MTT or WST-1, 72 hrs); format: cell-based, human; settings: oseltamivir phosphate alone; BxPC-3 (chemo-resistant); MTT or WST-1, 72 hrs
MiaPaCa-2 cells = test: Cell viability of MiaPaCa-2 pancreatic cancer cells in culture (MTT or WST-1, 72 hrs); format: cell-based, human
Capan-1 cells = test: Cell viability of Capan-1 pancreatic metastatic cancer cells in culture (MTT or WST-1, 72 hrs); format: cell-based, human; settings: oseltamivir phosphate alone; Capan-1 (chemo-sensitive); MTT or WST-1, 72 hrs
Method: CAPAN-1 cells (ATCC® Number: HTB-79™) are human pancreatic cancer cell line with epithelial morphology expressing the 17 beta-estradiol (E2)-binding estrogen receptor and derived from metastatic liver with adenocarcinoma.
as §2, §3, §4

[3] = oseltamivir phosphate analogues (TD), WST-1, 72 hrs
[4] = day 84, oseltamivir phosphate 2 mg/kg daily, alone or with Abraxane 0.5 / Gemcitabine 30 mg/kg
[5] = day 84, oseltamivir phosphate 5 mg/kg daily, alone or with Abraxane 0.5 / Gemcitabine 30 mg/kg
[6] = day 93, oseltamivir phosphate 2 mg/kg daily, alone or with Gemcitabine 30 mg/kg
[7] = day 93, oseltamivir phosphate 5 mg/kg daily, alone or with Gemcitabine 30 mg/kg
[8] = oseltamivir phosphate 2 mg/kg, alone day 90, with abraxane 0.5 day 78, with gemcitabine 30 day 110

## CCOC(=O)C1=C[C@@H](OC(CC)CC)[C@H](NC(C)=O)[C@@H](N)C1 [oseltamivir phosphate]
MDA MB-231 cells
  LD50: 0.6 µM
A 2780 cells
  LD50: 1.5 µM
PANC-1 cells; oseltamivir phosphate alone, PANC-1 (chemo-resistant), MTT or WST-1, 72 hrs
  LD50: 1462 µM
PANC-1 cells; [3]
  LD50 PANC-1: 1462 µM
MCF-7 cells
  LD50: >3 µM
[1]; day 79, oseltamivir phosphate 2 mg/kg daily, alone or with Abraxane 0.5 / Gemcitabine 30 mg/kg
  % Inhibition To untreated: 35% (n.s.)
[1]; day 79, oseltamivir phosphate 2 mg/kg i.p. daily, alone or with Abraxane 0.5 / Gemcitabine 30 mg/kg
  Tumour volume: 901 ± 104 (5) mm^3
[1]; day 79, oseltamivir phosphate 5 mg/kg daily, alone or with Abraxane 0.5 / Gemcitabine 30 mg/kg
  % Inhibition To untreated: 31% (n.s.)
[1]; day 79, oseltamivir phosphate 5 mg/kg i.p. daily, alone or with Abraxane 0.5 / Gemcitabine 30 mg/kg
  Tumour volume: 956 ± 345 (4) mm^3
[1]; [4]
  % Inhibition To untreated: 22% (n.s.)
  Tumour volume: 1079 ± 91 (5) mm^3
[1]; [5]
  % Inhibition To untreated: 5% (n.s.)
  Tumour volume: 1321 ± 503 (4) mm^3
[1]; [6]
  % Inhibition To untreated: 0% (n.s.)
  Tumour volume: 1554 ± 469 (2) mm^3
[1]; [7]
  % Inhibition To untreated: 0% (n.s.)
  Tumour volume: 1406 ± 471 (2) mm^3
[1]; oseltamivir phosphate 2 mg/kg, alone day 90, with abraxane 0.5 mg/kg day 78, with gemcitabine 30 mg/kg day 110
  Liver metastases (ave number of nodules): 26
[1]; [8]
  Metastases (size, mm): 0.2-1.3 mm
  Liver metastases % Inhibition: 38%
[1]; oseltamivir phosphate 5 mg/kg, alone day 90, with abraxane 0.5 mg/kg day 90, with gemcitabine 30 mg/kg day 109
  Liver metastases (ave number of nodules): 21
[1]; oseltamivir phosphate 5 mg/kg, alone day 90, with abraxane 0.5 day 90, with gemcitabine 30 day 109
  Liver metastases % Inhibition: 50%
[1]; oseltamivir phosphate 2 and 5 mg/kg, Abraxane 0.5 mg/kg, gemcitabine 30 mg/kg, alone or combined, untreated control day 80
  Survival of tumour bearing mice: 91 days and 94 days
A 2780cis cells
  LD50: 1.0 µM
[2]; Table 8 study, day 46, 50 mg/kg, vs untreated
  % Inhibition (tumour volume): 60.4%
[2]; Table 8 study, day 46, 100 mg/kg, vs untreated
  % Inhibition (tumour volume): 61.0%
[2]; Table 8 study, day 46, 200 mg/kg, vs untreated
  % Inhibition (tumour volume): 58.5%
[2]; Table 8 study, day 46 post implantation, oseltamivir phosphate 50 mg/kg
  Tumour volume: 368 ± 38 (4) mm^3
[2]; Table 8 study, day 46 post implantation, oseltamivir phosphate 100 mg/kg
  Tumour volume: 362 ± 62 (4) mm^3
[2]; Table 8 study, day 46 post implantation, oseltamivir phosphate 200 mg/kg
  Tumour volume: 386 ± 88 (4) mm^3
[2]; day 48, 2 mg/kg i.p., vs untreated
  % Inhibition (tumour volume): 61.7%
[2]; day 48, 10 mg/kg i.p., vs untreated
  % Inhibition (tumour volume): 71.5%
[2]; day 48, 50 mg/kg i.p., vs untreated
  % Inhibition (tumour volume): 60.3%
[2]; day 48, 100 mg/kg i.p., vs untreated
  % Inhibition (tumour volume): 58.9%
[2]; day 48 post implantation, oseltamivir phosphate 2 mg/kg i.p.
  Tumour volume: 370 ± 88 (5) mm^3
[2]; day 48 post implantation, oseltamivir phosphate 10 mg/kg i.p.
  Tumour volume: 275 ± 71 (6) mm^3
[2]; day 48 post implantation, oseltamivir phosphate 50 mg/kg i.p.
  Tumour volume: 383 ± 71 (4) mm^3
[2]; day 48 post implantation, oseltamivir phosphate 100 mg/kg i.p.
  Tumour volume: 397 ± 57 (5) mm^3
[2]; day 61, 2 mg/kg i.p.
  % Inhibition (tumour volume): 34.1%
[2]; day 61, 10 mg/kg i.p.
  % Inhibition (tumour volume): 26.3%
[2]; day 61, 50 mg/kg i.p.
  % Inhibition (tumour volume): 32.4%
[2]; day 61, 100 mg/kg i.p.
  % Inhibition (tumour volume): 27.4%
[2]; day 61 post implantation, oseltamivir phosphate 2 mg/kg i.p.
  Tumour volume: 636 ± 35 (2) mm^3
[2]; day 61 post implantation, oseltamivir phosphate 10 mg/kg i.p.
  Tumour volume: 711 ± 159 (5) mm^3
[2]; day 61 post implantation, oseltamivir phosphate 50 mg/kg i.p.
  Tumour volume: 652 ± 173 (3) mm^3
[2]; day 61 post implantation, oseltamivir phosphate 100 mg/kg i.p.
  Tumour volume: 701 ± 201 (3) mm^3
[2]; oseltamivir phosphate 2, 10, 50 and 100 mg/kg i.p. from day 40 post implantation, vs untreated
  Reduction of tumour growth in time-to-progression: over 50%
BxPC-3 cells
  LD50: 975 µM
MiaPaCa-2 cells; oseltamivir phosphate alone, MiaPaCa (chemo-resistant), MTT or WST-1, 72 hrs
  LD50: 850 µM
MiaPaCa-2 cells; [3]
  LD50 MiaPaCa-2: 850 µM
Capan-1 cells
  LD50: 2 µM
